# Source: US20240199702A1, “CELL-PERMEABLE CYCLIC PEPTIDES AND USES THEREOF” (Unnatural Products Inc., priority 2021, published 2024)
# Where a SMILES comes first, the peptide text is derived from it. [ ]: non-standard residue; d: D form. The star is where a group is joined. Ala(4-thiazolyl) = N[C@@H](Cc1cscn1)C(=O)O; NMeAla(cPent) = CN[C@@H](CC1CCCC1)C(=O)O; Phe(4-Cl) = N[C@@H](Cc1ccc(Cl)cc1)C(=O)O; Phe(4-F) = N[C@@H](Cc1ccc(F)cc1)C(=O)O; Ala(cPent) = N[C@@H](CC1CCCC1)C(=O)O; Cyclohexanecarbonyl = O=C(C1CCCCC1)*; NMeCba = CN[C@@H](CC1CCC1)C(=O)O; NMeF = CN[C@@H](Cc1ccccc1)C(=O)O; NMeI = CC[C@H](C)[C@H](NC)C(=O)O; NMeT = CN[C@H](C(=O)O)[C@@H](C)O; Cba = N[C@@H](CC1CCC1)C(=O)O; Nicotinoyl = O=C(c1cccnc1)*; Isovaleryl = CC(C)CC(=O)*; hSer = N[C@@H](CCO)C(=O)O; NMeA = CN[C@@H](C)C(=O)O; dNMeA = CN[C@H](C)C(=O)O; Bz = O=C(c1ccccc1)*; Nme = COCCNCC(=O)O; Sar = CNCC(=O)O
# Tests used:
# Human MDM2 (HDM2) 1-116 = biological target: T1, Human MDM2 (HDM2) 1-116 (Homo sapiens, UniProt Q00987); experiment: Fluorescence Polarization Assay 1 (MDM2/p53 peptide); type: binding; conditions: FAM-labeled p53 peptide, 60 minutes
# T1 construct: Human MDM2 (HDM2) 1-116
# Procedure: Fluorescence Polarization Assay 1
# (§1) Human MDM2 (HDM2) 1-116 (20 μL) and FAM-labeled GGTSFAEYWNLLSP-NH2, 10 nM and 5 nM respectively in 10 mM Tris, 50 mM NaCl, 0.01% Tween20, and 1 mM DTT at pH 7.4 were dispensed into an opaque, black, 384 well plate. Compounds dissolved in DMSO were pin transferred (˜100-200 nL) to the 384 well plate containing the MDM2/p53 solution. After incubation for 60 minutes, the fluorescence polarization was read on a Molecular Devices SpectraMax plate reader equipped with a Fluorescein FP cartridge. In addition to probe alone (positive control) and probe/MDM2 (negative control), a titration of linear p53(18-26) was included on every plate as an additional control. IC50 values were fit using either Prism or Collaborative Drug Discovery.
# Human MDM4 (HDM4) 1-114 = biological target: T2, Human MDM4 (HDM4) 1-114 (Homo sapiens, UniProt O15151); experiment: Fluorescence Polarization Assay 2 (MDM4/p53 peptide); type: binding; conditions: FAM-labeled p53 peptide, 60 minutes
# T2 construct: Human MDM4 (HDM4) 1-114
# T2 sequence (O15151 1-114): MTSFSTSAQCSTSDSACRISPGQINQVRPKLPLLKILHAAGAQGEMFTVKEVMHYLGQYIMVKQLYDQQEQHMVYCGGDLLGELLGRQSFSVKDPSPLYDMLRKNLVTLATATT
# Procedure: Fluorescence Polarization Assay 2
# as §1, with “MDM4 (HDM4) 1-114” for “MDM2 (HDM2) 1-116”, “GGTSFAEYWNLLSP —NH2, 20” for “GGTSFAEYWNLLSP-NH2, 10”, “(−100-200” for “(˜100-200”, “MDM4/p53” for “MDM2/p53”, “probe/MDM4” for “probe/MDM2”
# T1 sequence (Q00987 1-116): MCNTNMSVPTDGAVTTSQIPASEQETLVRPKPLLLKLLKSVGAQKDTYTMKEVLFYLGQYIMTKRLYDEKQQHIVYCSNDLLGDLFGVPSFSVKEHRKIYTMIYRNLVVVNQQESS
Structure (SMILES),IC50 (Human MDM2 (HDM2) 1-116) [nM],IC50 (Human MDM4 (HDM4) 1-114) [nM]
COCC[C@@H]1NC(=O)[C@H]2CCCN2C(=O)[C@H](Cc2ccccc2)N(C)C(=O)[C@H](Cc2ccc(Cl)cc2)NC(=O)[C@H]([C@@H](C)OC(=O)CC(C)C)NC(=O)[C@H](Cc2ccc(F)cc2)NC(=O)CN(CCOC)C(=O)[C@@H](C)N(C)C(=O)[C@H](Cc2cscn2)NC(=O)[C@H](C)N(C)C1=O [compound 5] (cyclo([Ala(4-thiazolyl)][dNMeA][Nme][Phe(4-F)]T(Isovaleryl)[Phe(4-Cl)][NMeF][dP][hSer](Me)[NMeA])),25 to 50,50 to 100
COCC[C@@H]1NC(=O)[C@H]2CCCN2C(=O)[C@H](Cc2ccccc2)N(C)C(=O)[C@H](Cc2ccc(Cl)cc2)NC(=O)[C@H]([C@@H](C)OC(C)=O)NC(=O)[C@H](Cc2ccc(F)cc2)NC(=O)CN(CCOC)C(=O)[C@@H](C)N(C)C(=O)[C@H](Cc2cscn2)NC(=O)[C@H](C)N(C)C1=O [compound 1] (cyclo([Ala(4-thiazolyl)][dNMeA][Nme][Phe(4-F)]T(Ac)[Phe(4-Cl)][NMeF][dP][hSer](Me)[NMeA])),< 25,25 to 50
COCC[C@@H]1NC(=O)[C@H]2CCCN2C(=O)[C@H](Cc2ccccc2)N(C)C(=O)[C@H](Cc2ccc(Cl)cc2)NC(=O)[C@H]([C@@H](C)O)NC(=O)[C@H](Cc2ccc(F)cc2)NC(=O)CN(CCOC)C(=O)[C@@H](C)N(C)C(=O)[C@H](Cc2cscn2)NC(=O)[C@H](C)N(C)C1=O [compound 18] (cyclo([hSer](Me)[NMeA][Ala(4-thiazolyl)][dNMeA][Nme][Phe(4-F)]T[Phe(4-Cl)][NMeF][dP])),< 25,25 to 50
COCC[C@@H]1NC(=O)[C@H]2CCCN2C(=O)[C@H](Cc2ccccc2)N(C)C(=O)[C@H](Cc2ccc(Cl)cc2)NC(=O)[C@H]([C@@H](C)OC)NC(=O)[C@H](Cc2ccc(F)cc2)NC(=O)CN(CCOC)C(=O)[C@@H](C)N(C)C(=O)[C@H](Cc2cscn2)NC(=O)[C@H](C)N(C)C1=O [compound 12] (cyclo([Ala(4-thiazolyl)][dNMeA][Nme][Phe(4-F)]T(Me)[Phe(4-Cl)][NMeF][dP][hSer](Me)[NMeA])),< 25,< 25
COCC[C@@H]1NC(=O)[C@H]2CCCN2C(=O)[C@H](Cc2ccccc2)N(C)C(=O)[C@H](Cc2ccc(Cl)cc2)NC(=O)[C@H]([C@@H](C)OC(=O)c2ccccc2)NC(=O)[C@H](Cc2ccc(F)cc2)NC(=O)CN(CCOC)C(=O)[C@@H](C)N(C)C(=O)[C@H](Cc2cscn2)NC(=O)[C@H](C)N(C)C1=O [compound 2] (cyclo([Ala(4-thiazolyl)][dNMeA][Nme][Phe(4-F)]T(Bz)[Phe(4-Cl)][NMeF][dP][hSer](Me)[NMeA])),< 25,< 25
COCC[C@@H]1NC(=O)[C@H]2CCCN2C(=O)[C@H](Cc2ccccc2)N(C)C(=O)[C@H](Cc2ccc(Cl)cc2)NC(=O)[C@H]([C@@H](C)OC(=O)C2CCCCC2)NC(=O)[C@H](Cc2ccc(F)cc2)NC(=O)CN(CCOC)C(=O)[C@@H](C)N(C)C(=O)[C@H](Cc2cscn2)NC(=O)[C@H](C)N(C)C1=O [compound 8] (cyclo([Ala(4-thiazolyl)][dNMeA][Nme][Phe(4-F)]T(Cyclohexanecarbonyl)[Phe(4-Cl)][NMeF][dP][hSer](Me)[NMeA])),≥ 100,≥ 100
COCC[C@@H]1NC(=O)[C@H]2CCCN2C(=O)[C@H](Cc2ccccc2)N(C)C(=O)[C@H](Cc2ccc(Cl)cc2)NC(=O)[C@H](CC2CCC2)N(C)C(=O)[C@H](Cc2ccc(F)cc2)NC(=O)CN(CCOC)C(=O)[C@@H](C)N(C)C(=O)[C@H](Cc2cscn2)NC(=O)[C@H](C)N(C)C1=O [compound 9] (cyclo([Ala(4-thiazolyl)][dNMeA][Nme][Phe(4-F)][NMeCba][Phe(4-Cl)][NMeF][dP][hSer](Me)[NMeA])),< 25,50 to 100
CC[C@H](C)[C@@H]1NC(=O)[C@H](Cc2ccc(F)cc2)NC(=O)CN(CCOC)C(=O)[C@@H](C)N(C)C(=O)[C@H](Cc2cscn2)NC(=O)[C@H](C)N(C)C(=O)[C@H](CCOC)NC(=O)[C@H]2CCCN2C(=O)[C@H](Cc2ccccc2)N(C)C(=O)[C@H](Cc2ccc(Cl)cc2)NC1=O [compound 16] (cyclo([Ala(4-thiazolyl)][dNMeA][Nme][Phe(4-F)]I[Phe(4-Cl)][NMeF][dP][hSer](Me)[NMeA])),< 25,25 to 50
COCC[C@@H]1NC(=O)[C@H]2CCCN2C(=O)[C@H](Cc2ccccc2)N(C)C(=O)[C@H](Cc2ccc(Cl)cc2)NC(=O)[C@H]([C@@H](C)OC)N(C)C(=O)[C@H](Cc2ccc(F)cc2)NC(=O)CN(CCOC)C(=O)[C@@H](C)N(C)C(=O)[C@H](Cc2cscn2)NC(=O)[C@H](C)N(C)C1=O [compound 20] (cyclo([Ala(4-thiazolyl)][dNMeA][Nme][Phe(4-F)][NMeT](Me)[Phe(4-Cl)][NMeF][dP][hSer](Me)[NMeA])),< 25,50 to 100
COCC[C@@H]1NC(=O)[C@H]2CCCN2C(=O)[C@H](Cc2ccccc2)N(C)C(=O)[C@H](Cc2ccc(Cl)cc2)NC(=O)[C@H](C(C)C)NC(=O)[C@H](Cc2ccc(F)cc2)NC(=O)CN(C)C(=O)[C@@H](C)N(C)C(=O)[C@H](Cc2cscn2)NC(=O)[C@H](C)N(C)C1=O [compound 13] (cyclo([Ala(4-thiazolyl)][dNMeA][Sar][Phe(4-F)]V[Phe(4-Cl)][NMeF][dP][hSer](Me)[NMeA])),< 25,25 to 50
COCC[C@@H]1NC(=O)[C@H]2CCCN2C(=O)[C@H](Cc2ccccc2)N(C)C(=O)[C@H](Cc2ccc(Cl)cc2)NC(=O)[C@H]([C@@H](C)O)N(C)C(=O)[C@H](Cc2ccc(F)cc2)NC(=O)CN(CCOC)C(=O)[C@@H](C)N(C)C(=O)[C@H](Cc2cscn2)NC(=O)[C@H](C)N(C)C1=O [compound 19] (cyclo([Ala(4-thiazolyl)][dNMeA][Nme][Phe(4-F)][NMeT][Phe(4-Cl)][NMeF][dP][hSer](Me)[NMeA])),< 25,50 to 100
COCC[C@@H]1NC(=O)[C@H]2CCCN2C(=O)[C@H](Cc2ccccc2)N(C)C(=O)[C@H](Cc2ccc(Cl)cc2)NC(=O)[C@H]([C@@H](C)OC(=O)c2cccnc2)NC(=O)[C@H](Cc2ccc(F)cc2)NC(=O)CN(CCOC)C(=O)[C@@H](C)N(C)C(=O)[C@H](Cc2cscn2)NC(=O)[C@H](C)N(C)C1=O [compound 3] (cyclo([Ala(4-thiazolyl)][dNMeA][Nme][Phe(4-F)]T(Nicotinoyl)[Phe(4-Cl)][NMeF][dP][hSer](Me)[NMeA])),< 25,50 to 100
COCC[C@@H]1NC(=O)[C@H]2CCCN2C(=O)[C@H](Cc2ccccc2)N(C)C(=O)[C@H](Cc2ccc(Cl)cc2)NC(=O)[C@H](CC2CCCC2)N(C)C(=O)[C@H](Cc2ccc(F)cc2)NC(=O)CN(CCOC)C(=O)[C@@H](C)N(C)C(=O)[C@H](Cc2cscn2)NC(=O)[C@H](C)N(C)C1=O [compound 10] (cyclo([Ala(4-thiazolyl)][dNMeA][Nme][Phe(4-F)][NMeAla(cPent)][Phe(4-Cl)][NMeF][dP][hSer](Me)[NMeA])),< 25,≥ 100
COCC[C@@H]1NC(=O)[C@H]2CCCN2C(=O)[C@H](Cc2ccccc2)N(C)C(=O)[C@H](Cc2ccc(Cl)cc2)NC(=O)[C@H](CC2CCCC2)NC(=O)[C@H](Cc2ccc(F)cc2)NC(=O)CN(CCOC)C(=O)[C@@H](C)N(C)C(=O)[C@H](C)N(C)C1=O [compound 15] (cyclo([Ala(cPent)][Phe(4-Cl)][NMeF][dP][hSer](Me)[NMeA][dNMeA][Nme][Phe(4-F)])),< 25,50 to 100
CC[C@H](C)[C@H]1C(=O)N[C@@H](Cc2ccc(Cl)cc2)C(=O)N(C)[C@@H](Cc2ccccc2)C(=O)N2CCC[C@@H]2C(=O)N[C@@H](CCOC)C(=O)N(C)[C@@H](C)C(=O)N[C@@H](Cc2cscn2)C(=O)N(C)[C@H](C)C(=O)N(CCOC)CC(=O)N[C@@H](Cc2ccc(F)cc2)C(=O)N1C [compound 17] (cyclo([Ala(4-thiazolyl)][dNMeA][Nme][Phe(4-F)][NMeI][Phe(4-Cl)][NMeF][dP][hSer](Me)[NMeA])),< 25,≥ 100
COCC[C@@H]1NC(=O)[C@H]2CCCN2C(=O)[C@H](Cc2ccccc2)N(C)C(=O)[C@H](Cc2ccc(Cl)cc2)NC(=O)[C@H](CC2CCC2)NC(=O)[C@H](Cc2ccc(F)cc2)NC(=O)CN(CCOC)C(=O)[C@@H](C)N(C)C(=O)[C@H](C)N(C)C1=O [compound 14] (cyclo([Cba][Phe(4-Cl)][NMeF][dP][hSer](Me)[NMeA][dNMeA][Nme][Phe(4-F)])),< 25,25 to 50
